Earlier results, collected in patent US4814324A, “Sterol inhibitors of testosterone 5α-reductase” (Merck & Co., Inc., priority 1987, dated 1989).

Legend:
[1] = tested on: testosterone-5α-reductase; settings: Voigt and Hsia, Endocrinology, 92, 1216 (1973)
[2] = tested on: female hamster flank organ; settings: Voigt and Hsia; for response elicited by 5α-dihydrotestosterone (flank organ enlargement) / response elicited by testosterone (flank organ enlargement): topical; for response elicited by 5α-dihydrotestosterone (flank organ enlargement): concomitant with 5α-dihydrotestosterone; for response elicited by testosterone (flank organ enlargement): concomitant with testosterone; for enlargement of the female hamster flank organ: topical application alone

Row | SMILES | testosterone-5α-reductase inhibition in vitro [1] | response elicited by 5α-dihydrotestosterone (flank organ enlargement) [2] | response elicited by testosterone (flank organ enlargement) [2] | enlargement of the female hamster flank organ [2]
1 | C[C@]12CC[C@H]3[C@@H](CCC4=CC(=O)CC[C@@]43C)[C@@H]1CC[C@@H]2C(=O)O [4-androsten-3-one-17β-carboxylic acid] | active inhibitors | did not inhibit the response elicited by 5α-dihydrotestosterone | inhibited the response elicited by testosterone | –
2 | COC(=O)[C@H]1CC[C@H]2[C@@H]3CCC4=CC(=O)CC[C@]4(C)[C@H]3CC[C@]12C [methyl 4-androsten-3-one-17β-carboxylate] | active inhibitors | did not inhibit the response elicited by 5α-dihydrotestosterone | inhibited the response elicited by testosterone | –
3 | C[C@]12CC[C@H]3[C@@H](CCC4=CC(=O)CC[C@@]43C)[C@@H]1CC[C@@H]2O [testosterone] | – | – | – | caused enlargement of the female hamster flank organ
4 | C[C@]12CCC(=O)C[C@@H]1CC[C@@H]1[C@@H]2CC[C@]2(C)[C@@H](O)CC[C@@H]12 [5α-dihydrotesterone, 5α-dihydrotestosterone] | – | – | – | caused enlargement of the female hamster flank organ
